Data from patent US20260167623A1 (NIKANG THERAPEUTICS, INC., priority 2022, published 2026).

Experiments:
[1] = target: T1, CDK2 (Homo sapiens, UniProt P24941); assay: Inhibition of CDK2: phospho-Rb (S807/811) HTRF measurement in OVCAR3 cells, 24 h; assay type: cell-based; conditions: 24 h compound treatment, read-out: pRB_OVCAR3_24h
T1 construct: High-Throughput Measurement of Cellular Endogenous CDK2; endogenous in cells; host or cells: OVCAR3
Method in brief: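 OVCAR3 cells, seeded overnight, were exposed to compounds at 0.3 to 10,000 nM for 24 h, then lysed. Rb S807/811 phosphorylation read by HTRF (665/620 nm ratio) after 4 h detection at room temperature; data normalized to DMSO and IC50 from four-parameter logistic fit.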

[2] = target: T1, CDK2; assay: High-throughput HTRF measurement of cellular endogenous CDK2 level (degradation, DC50/Dmax) in OVCAR3 cells, 6 h; assay type: cell-based; conditions: 6 h compound treatment, HTRF total CDK2, read-out: DC50_OVCAR3_6h
Method in brief: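 OVCAR3 cells were treated overnight after seeding with compounds at 0.03–1,000 nM for 6 h, then lysed. Total CDK2 was quantified by HTRF (d2- and Eu-cryptate anti-CDK2 antibodies, […] ratio) after overnight incubation at room temperature. Data normalized to DMSO (0%) and lysis buffer (100% degradation); DC50 from four-parameter logistic fit.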

| SMILES | IC50 [1] [µM] | DC50 [2] [µM] |
| --- | --- | --- |
| Cn1nc(N2CCC(=O)NC2=O)c2ccc(C3CCN(CC4(O)CCN(c5cccc(S(=O)(=O)N6CCC(Nc7ncc(Cl)cn7)CC6)c5)CC4)CC3)cc21 [Example 162, 1-(6-(1-((1-(3-((4-((5-chloropyrimidin-2-yl)amino)piperidin-1-yl)sulfonyl)phenyl)-4-hydroxypiperidin-4-yl)methyl)piperidin-4-yl)-1-methyl-1H-indazol-3-yl)dihydropyrimidine-2,4(1H,3H)-dione] | 0.001 to 0.1 | 0.001 to 0.01 |
| O=C1CCC(n2c(=O)oc3c(C4CCN(CC5CCN(c6cccc(S(=O)(=O)N7CCC(Nc8ncc(C(F)(F)F)cn8)CC7)c6)CC5)CC4)cccc32)C(=O)N1 (stereo not shown) [Example 201, 3-(2-oxo-7-(1-((1-(3-((4-((5-(trifluoromethyl)pyrimidin-2-yl)amino)piperidin-1-yl)sulfonyl)phenyl)piperidin-4-yl)methyl)piperidin-4-yl)benzo[d]oxazol-3(2H)-yl)piperidine-2,6-dione] | 0.001 to 0.1 | 0.001 to 0.01 |
| Cn1c(=O)n(C2CCC(=O)NC2=O)c2cccc(C3CCN(CC4CCN(c5cccc(S(=O)(=O)N6CCC(Nc7ncc(C(F)(F)F)cn7)CC6)c5)CC4)CC3)c21 (stereo not shown) [Example 107, 3-(3-methyl-2-oxo-4-(1-((1-(3-((4-((5-(trifluoromethyl)pyrimidin-2-yl)amino)-piperidin-1-yl)sulfonyl)phenyl)piperidin-4-yl)methyl)piperidin-4-yl)-2,3-dihydro-1H-benzo[d]imidazol-1-yl)piperidine-2,6-dione] | 0.001 to 0.1 | 0.001 to 0.01 |
| O=C1CCC(N2Cc3cc(N4CCN(Cc5cccc(S(=O)(=O)N6CCC(Nc7ncc(C(F)(F)F)cn7)CC6)c5)CC4)c(F)cc3C2=O)C(=O)N1 (stereo not shown) [Example 42, 3-(6-fluoro-1-oxo-5-(4-(3-((4-((5-(trifluoro-methyl)pyrimidin-2-yl)amino)piperidin-1-yl)sulfonyl)benzyl)piperazin-1-yl)isoindolin-2-yl)piperidine-2,6-dione] | 0.001 to 0.1 | 0.001 to 0.01 |
| Cn1nc(N2CCC(=O)NC2=O)c2ccc(C3CCN(CC4CCN(c5cc(S(=O)(=O)N6CCC(Nc7ncc(Cl)cn7)CC6)ccc5C#N)CC4)CC3)cc21 [Example 148, 4-((4-((5-chloropyrimidin-2-yl)amino)piperidin-1-yl)sulfonyl)-2-(4-((4-(3-(2,4-dioxotetrahydropyrimidin-1(2H)-yl)-1-methyl-1H-indazol-6-yl)piperidin-1-yl)methyl)piperidin-1-yl)benzonitrile] | 0.001 to 0.1 | 0.01 to 0.1 |
| Cc1ncsc1-c1ccc([C@H](C)NC(=O)[C@@H]2C[C@@H](O)CN2C(=O)[C@@H](NC(=O)C2(F)CC2)C(C)(C)SCC2CCN(Cc3cccc(S(=O)(=O)N4CCC(Nc5ncc(C(F)(F)F)cn5)CC4)c3)CC2)cc1 [Example 8, (2S,4R)-1-((R)-2-(1-fluorocyclopropane-1-carboxamido)-3-methyl-3-(((1-(3-((4-((5-(trifluoromethyl)pyrimidin-2-yl)amino)-piperidin-1-yl)sulfonyl)benzyl)piperidin-4-yl)methyl)thio)butanoyl)-4-hydroxy-N-((S)-1-(4-(4-methylthiazol-5-yl)phenyl)-ethyl)pyrrolidine-2-carboxamide] | 0.1 to 0.5 | 0.001 to 0.01 |
| Cn1c(=O)n(C2CCC(=O)NC2=O)c2cccc(C3CCN(CC4CCN(c5cc(F)cc(S(=O)(=O)N6CCC(Nc7ncc(OC(F)F)cn7)CC6)c5)CC4)CC3)c21 (stereo not shown) [Example 174, 3-(4-(1-((1-(3-((4-((5-(difluoromethoxy)pyrimidin-2-yl)amino)piperidin-1-yl)sulfonyl)-5-fluorophenyl)piperidin-4-yl)methyl)piperidin-4-yl)-3-methyl-2-oxo-2,3-dihydro-1H-benzo[d]imidazol-1-yl)piperidine-2,6-dione] | 0.001 to 0.1 | 0.001 to 0.01 |
| Cn1nc(N2CCC(=O)NC2=O)c2ccc(C3CCN(CC4CN(c5cccc(S(=O)(=O)N6CCC(Nc7ncc(C(F)(F)F)cn7)CC6)c5)C4)CC3)cc21 [Example 108, 1-(1-methyl-6-(1-((1-(3-((4-((5-(trifluoromethyl)pyrimidin-2-yl)amino)-piperidin-1-yl)sulfonyl)phenyl)azetidin-3-yl)methyl)piperidin-4-yl)-1H-indazol-3-yl)dihydropyrimidine-2,4(1H,3H)-dione] | 0.001 to 0.1 | 0.01 to 0.1 |
| CN(CCCN1CCC(c2cccc3c2n(C)c(=O)n3C2CCC(=O)NC2=O)CC1)c1cccc(S(=O)(=O)N2CCC(Nc3ncc(C(F)(F)F)cn3)CC2)c1 (stereo not shown) [Example 190, 3-(3-methyl-4-(1-(3-(methyl(3-((4-((5-(trifluoromethyl)pyrimidin-2-yl)amino)piperidin-1-yl)sulfonyl)phenyl)amino)propyl)piperidin-4-yl)-2-oxo-2,3-dihydro-1H-benzo[d]imidazol-1-yl)piperidine-2,6-dione] | 0.001 to 0.1 | 0.01 to 0.1 |
| CC(C)c1cnc(NC2CCN(S(=O)(=O)c3cccc(N4CCC(CN5CCC(c6ccc7c(N8CCC(=O)NC8=O)nn(C)c7c6)CC5)CC4)c3)CC2)nc1 [Example 244, 1-(6-(1-((1-(3-((4-((5-isopropylpyrimidin-2-yl)amino)piperidin-1-yl)sulfonyl)phenyl)piperidin-4-yl)methyl)piperidin-4-yl)-1-methyl-1H-indazol-3-yl)dihydropyrimidine-2,4(1H,3H)-dione] | 0.001 to 0.1 | 0.001 to 0.01 |
| C=Cc1cnc(NC2CCN(S(=O)(=O)c3cccc(N4CCC(CN5CCC(c6ccc7c(N8CCC(=O)NC8=O)nn(C)c7c6)CC5)CC4)c3)CC2)nc1 [Example 208, 1-(1-methyl-6-(1-((1-(3-((4-((5-vinylpyrimidin-2-yl)amino)piperidin-1-yl)sulfonyl)phenyl)piperidin-4-yl)methyl)piperidin-4-yl)-1H-indazol-3-yl)dihydropyrimidine-2,4(1H,3H)-dione] | 0.001 to 0.1 | 0.001 to 0.01 |

Continued, values first:

| IC50 [1] [µM] | DC50 [2] [µM] | SMILES |
| --- | --- | --- |
| 0.001 to 0.1 | 0.01 to 0.1 | Cn1nc(N2CCC(=O)NC2=O)c2ccc(C3CCN(CC4CCN(c5cc(S(=O)(=O)N6CCC(Nc7ncc(C(F)(F)F)cn7)CC6)ccc5C#N)CC4)CC3)c(F)c21 [Example 188, 2-(4-((4-(3-(2,4-dioxotetrahydropyrimidin-1(2H)-yl)-7-fluoro-1-methyl-1H-indazol-6-yl)piperidin-1-yl)methyl)piperidin-1-yl)-4-((4-((5-(trifluoromethyl)pyrimidin-2-yl)amino)piperidin-1-yl)sulfonyl)benzonitrile] |
| 0.001 to 0.1 | 0.001 to 0.01 | CC(Cc1cccc(S(=O)(=O)N2CCC(Nc3ncc(OC(F)F)cn3)CC2)c1)CN1CCC(c2ccc3c(N4CCC(=O)NC4=O)nn(C)c3c2)CC1 (stereo not shown) [Example 66, 1-(6-(1-(3-(3-((4-((5-(difluoromethoxy)-pyrimidin-2-yl)amino)piperidin-1-yl)sulfonyl)phenyl)-2-methylpropyl)-piperidin-4-yl)-1-methyl-1H-indazol-3-yl)dihydropyrimidine-2,4(1H,3H)-dione] |
| 0.001 to 0.1 | 0.001 to 0.01 | Cn1nc(N2CCC(=O)NC2=O)c2ccc(C3CCN(CC4CCN(c5cccc(S(=O)(=O)N6CCC(Nc7ncc(Cl)cn7)CC6)c5)C(=O)C4)CC3)cc21 (stereo not shown) [Example 234, 1-(6-(1-((1-(3-((4-((5-chloropyrimidin-2-yl)amino)piperidin-1-yl)sulfonyl)phenyl)-2-oxopiperidin-4-yl)methyl)piperidin-4-yl)-1-methyl-1H-indazol-3-yl)dihydropyrimidine-2,4(1H,3H)-dione] |
| 0.001 to 0.1 | 0.001 to 0.01 | Cn1nc(N2CCC(=O)NC2=O)c2ccc(C3CCN(Cc4cccc(S(=O)(=O)N5CCC(Nc6ncc(OC(F)F)cn6)CC5)c4)CC3)c(F)c21 [Example 93, 1-(6-(1-(3-((4-((5-(difluoromethoxy)-pyrimidin-2-yl)amino)piperidin-1-yl)sulfonyl)benzyl)piperidin-4-yl)-7-fluoro-1-methyl-1H-indazol-3-yl)dihydropyrimidine-2,4(1H,3H)-dione] |
| 0.001 to 0.1 | 0.01 to 0.1 | Cn1nc(N2CCC(=O)NC2=O)c2ccc(C3CCN(CC4CCN(c5cccc(S(=O)(=O)N6CCC(Nc7ncc(C(F)(F)F)cn7)CC6)c5)CC4)CC3)c(Cl)c21 [Example 89, 1-(7-chloro-1-methyl-6-(1-((1-(3-((4-((5-(trifluoromethyl)pyrimidin-2-yl)amino)-piperidin-1-yl)sulfonyl)phenyl)piperidin-4-yl)methyl)piperidin-4-yl)-1H-indazol-3-yl)dihydropyrimidine-2,4(1H,3H)-dione] |
| 0.001 to 0.1 | 0.01 to 0.1 | Cn1c(S(=O)(=O)N2CCC(Nc3ncc(C(F)(F)F)cn3)CC2)cnc1CN1CCC(c2ccc3c(N4CCC(=O)NC4=O)nn(C)c3c2)CC1 [Example 47, 1-(1-methyl-6-(1-((1-methyl-5-((4-((5-(trifluoromethyl)pyrimidin-2-yl)amino)-piperidin-1-yl)sulfonyl)-1H-imidazol-2-yl)methyl)piperidin-4-yl)-1H-indazol-3-yl)dihydropyrimidine-2,4(1H,3H)-dione] |
